According to US11827624B2, “Covalent immune recruiter compounds for immune cell recognition and associated uses” (McMaster University, priority 2020, dated 2023):
“And” between values parts separate entries of the source, which are not always exact repeats. Equal entries are not always repeated.

What was measured:
[1] = test system: humanized anti-DNP SPE7 (mmAb); test: BLI covalent labeling kinetics assay on IgG Fc capture probes, mmAb; assay type: binding
Procedure: Kinetic assays to characterize the second order rate constant (kinact/KI) describing the CIR+Ab labeling reaction involved incubating increasing concentrations of CIR 3 or CIR 5 with a fixed concentration (75 nM) of anti-DNP mmAb in solution, for different periods of time. PSMA binding to CIR-Ab complexes increases the total mass associated with the probe surface leading to signal increases (nm shift). CIR 3 (500 nM) and 75 nM of either mmAb or mAb (AcroBiosystems Catalog #DNP-M2) was reacted in 1× Kinetics Buffer (ForteBio) for four hours prior to the experiment. IgG Fc capture (ProG) probes from ForteBio were placed in 1× Kinetics Buffer for 20 minutes prior to the experiment for wetting. The experiment was conducted using an Octet Red96 (ForteBio), where the acquisition rate was set to 5 Hz and the temperature was held at 25° C. The plate shaker setting was 1000 RPM. A volume of 250 μL of each solution was loaded onto a black flat-bottom 96-well plate (Grenier). The experiment began by placing the ProG probes in 1×Kinetics Buffer for four minutes to establish a baseline. Next, the probes were placed into the CIR 3 and anti-DNP antibody reaction mixture to load the covalent complex (CIR-Ab) onto the probe. Next, the probes were placed in a solution of 5 mM DNP-glycine competitor in 1×Kinetics Buffer in order to disrupt any non-covalent or non-specific binding. The baseline was re-established by then placing the probes in 1× Kinetics Buffer for 0.5 minutes. To measure PSMA association, the probes were placed in a solution of 500 nM human PSMA protein in 1× Kinetics Buffer for 10 minutes. The probes were then placed in 1×Kinetics Buffer for 10 minutes to measure dissociation. The raw nm shift signal for the association and dissociation step obtained by the Octet Red96 was first baselined to the beginning of the association step (t=0 second) by subtracting the association signal at t=0 from the measured signal at each time point. The Kd was determined by fitting both the association and dissociation curves using the ‘association then dissociation’ binding model in GraphPad Prism 8. The experiment was repeated once for a total of two replicates.
The specific labelling of an antibody by a CIR occurs via a two-step mechanism. In the first step, the CIR binds to the antibody via its ABD and forms a reversible complex. […] This second order rate constant was determined by monitoring covalent product (CIR-Ab) formation as a function of time via BLI using IgG Fc capture probes (note: a non-specific labeling reaction occurs independent of binding to the DNP binding site with any biological nucleophile and follows second order kinetics without saturation). […]

[2] = test system: human serum anti-DNP IgG (sAb); test: BLI Fc capture probe assay of CIR 3 covalent recruitment of serum anti-DNP IgG; assay type: binding; details: 60 nM anti-DNP IgG enriched sample
Procedure: The ability of CIR 3 to recruit the tumour antigen PSMA to anti-DNP antibodies was measured using BLI. Anti-DNP IgG was isolated from human serum IgG (Cedarlane Labs) using affinity chromatography. The enriched anti-DNP antibody sample had 63.19 nM of anti-DNP antibody in 1.92 μM of total IgG. The enriched antibody sample was reacted with 2.5 μM of CIR 3 in PBS overnight at room temperature. A sample of 32.75 μM IgG that was depleted of anti-DNP antibody was also reacted with 2.5 μM of CIR 3 in PBS overnight at room temperature as a negative control. The BLI experiment was conducted using an Octet Red96 (ForteBio) with the temperature set at 25° C., the RPM set at 1000, and the acquisition rate set at 5 Hz. The isolated anti-DNP and CIR 3 reaction samples were suspended in 1×Kinetics Buffer (ForteBio) by doping in a 1:10 dilution of 10×Kinetics Buffer stock. A volume of 200 μL of each solution was loaded into a black flat-bottom 96-well plate (Grenier). Fc capture (ProG) biosensors from ForteBio were placed in 1×Kinetics Buffer for 20 minutes prior to the experiment for wetting. First, the probes were placed in 1×Kinetics Buffer for 4 minutes to establish a baseline. […] Association of PSMA to the probe was measured by submerging the probe in 500 nM PSMA for 10 minutes. Dissociation of PSMA from the probe was measured by submerging the probe in 1×Kinetics Buffer for 10 minutes. […]

## O=C(O)CC[C@H](NC(=O)N[C@@H](CCCCNC(=O)NCCOCCOCCOCCOCCOCCOCCOCCOC(=O)n1cnc(CCNC(=O)CNc2ccc([N+](=O)[O-])cc2[N+](=O)[O-])c1)C(=O)O)C(=O)O [CIR 3]
[1]; 20-fold excess (1.5 μM), mAb and mmAb
  covalent reaction selectivity at excess CIR: high covalent reaction selectivity for the DNP hapten binding site on both mAb and mmAb was observed
[1]; mmAb
  Kinact/Kl ^c: 12000 ± 1000 M⁻¹ s⁻¹
[1]; mmAb, 75 nM antibody
  Kinact^c: 4.0 × 10^−4 ± 0 s^−1
[1]; mmAb, read-out: Kl ^c
  Ki: ~30 nM and 30 nM
[2]
  covalent labeling of enriched serum anti-DNP IgG: substantial covalent antibody labeling and resultant PSMA binding to Fc capture probes
